Reference: patent US10081624B2, “Heterocyclic compound” (Takeda Pharmaceutical Company Limited, priority 2014, dated 2018)

Columns and labels:
HDAC1 enzyme = target: T1, HDAC1 enzyme (Homo sapiens, UniProt Q13547); test: HDAC1 enzyme inhibitory assay (HDAC-Glo I/II Assay kit); type: biochemical; settings: 1 μM test compound; read-out: HDAC1 inhibitory rate (%) (1 μM)
T1 construct: prepared by transducing full length HDAC1 and HDAC6 genes into Sf-9 insect cells; GST; purchased SignalChem; host or cells: Sf-9 insect cells
T1 sequence (Q13547 whole entry): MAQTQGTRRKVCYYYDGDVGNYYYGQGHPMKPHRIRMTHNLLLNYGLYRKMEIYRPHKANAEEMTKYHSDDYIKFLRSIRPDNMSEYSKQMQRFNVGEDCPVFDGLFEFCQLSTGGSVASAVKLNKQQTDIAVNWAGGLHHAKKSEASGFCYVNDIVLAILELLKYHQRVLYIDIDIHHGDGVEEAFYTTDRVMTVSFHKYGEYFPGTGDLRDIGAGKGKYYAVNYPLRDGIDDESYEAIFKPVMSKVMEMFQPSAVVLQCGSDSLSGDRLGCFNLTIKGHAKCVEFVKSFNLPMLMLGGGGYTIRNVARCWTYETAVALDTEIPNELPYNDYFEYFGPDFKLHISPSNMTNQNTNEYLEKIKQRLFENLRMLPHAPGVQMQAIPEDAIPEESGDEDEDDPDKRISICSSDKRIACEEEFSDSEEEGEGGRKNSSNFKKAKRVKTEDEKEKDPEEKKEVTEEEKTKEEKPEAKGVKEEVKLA
Outline: (§1)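 Sf-9-expressed GST-purified full-length HDAC1/HDAC6; cpd + enzyme 60 min RT, 24 mM Tris-HCl pH 7.5, 135 mM NaCl, 0.6 mM glutathione, 0.01% Tween-20; substrate-developer 20 min RT; luminescence; no-enzyme wells = 100% inhibition.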

HDAC6 enzyme = target: T2, HDAC6 enzyme (Homo sapiens, UniProt Q9UBN7); test: HDAC6 enzyme inhibitory assay (HDAC-Glo I/II Assay kit); type: biochemical; settings: 1 μM test compound; read-out: HDAC6 inhibitory rate (%) (1 μM)
T2 construct: prepared by transducing full length HDAC1 and HDAC6 genes into Sf-9 insect cells; GST; purchased SignalChem; host or cells: Sf-9 insect cells
T2 sequence (Q9UBN7 1-1215): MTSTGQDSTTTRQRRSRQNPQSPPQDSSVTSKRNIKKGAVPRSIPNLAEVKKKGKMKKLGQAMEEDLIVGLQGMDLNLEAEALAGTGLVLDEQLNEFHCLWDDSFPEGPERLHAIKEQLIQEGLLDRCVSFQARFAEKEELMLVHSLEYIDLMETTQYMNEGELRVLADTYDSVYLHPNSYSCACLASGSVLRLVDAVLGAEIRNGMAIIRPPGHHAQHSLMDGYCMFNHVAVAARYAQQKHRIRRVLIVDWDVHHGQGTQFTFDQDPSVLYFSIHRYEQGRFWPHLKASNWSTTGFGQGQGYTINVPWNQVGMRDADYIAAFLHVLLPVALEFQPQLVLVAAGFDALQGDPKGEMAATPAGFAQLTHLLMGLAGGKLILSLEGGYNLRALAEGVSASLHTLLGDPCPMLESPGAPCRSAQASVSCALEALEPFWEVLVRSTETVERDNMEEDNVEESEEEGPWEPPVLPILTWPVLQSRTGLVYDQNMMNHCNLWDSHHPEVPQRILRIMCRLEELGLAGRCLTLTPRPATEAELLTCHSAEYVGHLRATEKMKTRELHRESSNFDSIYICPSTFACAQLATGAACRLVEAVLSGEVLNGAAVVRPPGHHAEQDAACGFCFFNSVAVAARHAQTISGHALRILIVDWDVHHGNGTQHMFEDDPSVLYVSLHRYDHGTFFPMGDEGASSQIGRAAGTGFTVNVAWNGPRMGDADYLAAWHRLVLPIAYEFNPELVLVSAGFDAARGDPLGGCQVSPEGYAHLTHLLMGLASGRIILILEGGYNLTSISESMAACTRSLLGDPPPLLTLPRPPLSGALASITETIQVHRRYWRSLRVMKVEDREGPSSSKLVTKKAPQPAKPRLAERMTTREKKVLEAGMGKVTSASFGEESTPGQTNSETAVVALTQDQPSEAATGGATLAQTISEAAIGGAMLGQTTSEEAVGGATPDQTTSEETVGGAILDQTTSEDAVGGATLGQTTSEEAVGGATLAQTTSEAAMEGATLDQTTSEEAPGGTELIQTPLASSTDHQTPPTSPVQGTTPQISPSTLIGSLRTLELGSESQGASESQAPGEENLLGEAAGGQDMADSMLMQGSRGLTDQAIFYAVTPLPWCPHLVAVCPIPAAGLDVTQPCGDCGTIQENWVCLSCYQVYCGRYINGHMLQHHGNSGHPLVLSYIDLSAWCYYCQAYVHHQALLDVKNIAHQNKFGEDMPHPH
Outline: as §1

Row | Structure (SMILES) | inhibition at 1 µM (HDAC1 enzyme) [%] | inhibition at 1 µM (HDAC6 enzyme) [%]
1 | O=C(NC[C@H]1COCCN1C(=O)C1(c2ccccc2)CC1)c1ccc(-c2noc(C(F)(F)F)n2)cc1 [Example 56, N-(((3S)-4-((1-phenylcyclopropyl)carbonyl)morpholin-3-yl)methyl)-4-(5-(trifluoromethyl)-1,2,4-oxadiazol-3-yl)benzamide] | 16 | 97
2 | Cc1oncc1C(=O)N1CCOC[C@@H]1CNC(=O)c1ccc(-c2noc(C(F)(F)F)n2)cc1 [Example 59, N-(((3S)-4-((5-methyl-1,2-oxazol-4-yl)carbonyl)morpholin-3-yl)methyl)-4-(5-(trifluoromethyl)-1,2,4-oxadiazol-3-yl)benzamide] | 22 | 101
3 | Cc1nonc1C(=O)N1CCOC[C@@H]1CNC(=O)c1ccc(-c2noc(C(F)(F)F)n2)cc1 [Example 60, N-(((3S)-4-((4-methyl-1,2,5-oxadiazol-3-yl)carbonyl)morpholin-3-yl)methyl)-4-(5-(trifluoromethyl)-1,2,4-oxadiazol-3-yl)benzamide] | 27 | 98
4 | O=C(NC[C@H]1COCCN1C(=O)c1ccno1)c1ccc(-c2noc(C(F)(F)F)n2)cc1 [Example 61, N-(((3S)-4-(1,2-oxazol-5-ylcarbonyl)morpholin-3-yl)methyl)-4-(5-(trrfluoromethyl)-1,2,4-oxadiazol-3-yl)benzamide] | 10 | 97
5 | Cc1cc(C(=O)N2CCOC[C@@H]2CNC(=O)c2ccc(-c3noc(C(F)(F)F)n3)cc2)n(C)n1 [Example 63, N-(((3S)-4-((1,3-dimethyl-1H-pyrazol-5-yl)carbonyl)morpholin-3-yl)methyl)-4-(5-(trifluoromethyl)-1,2,4-oxadiazol-3-yl)benzamide] | 14 | 97
6 | Cn1nc(C(F)(F)F)cc1C(=O)N1CCOC[C@@H]1CNC(=O)c1ccc(-c2noc(C(F)(F)F)n2)cc1 [Example 64, N-(((3S)-4-((1-methyl-3-(trifluoromethyl)-1H-pyrazol-5-yl)carbonyl)morpholin-3-yl)methyl)-4-(5-(trifluoromethyl)-1,2,4-oxadiazol-3-yl)benzamide] | 17 | 93
7 | Cc1nn(C)c(C)c1C(=O)N1CCOC[C@@H]1CNC(=O)c1ccc(-c2noc(C(F)(F)F)n2)cc1 [Example 67, 4-(5-(trifluoromethyl)-1,2,4-oxadiazol-3-yl)-N-(((3S)-4-((1,3,5-trimethyl-1H-pyrazol-4-yl)carbonyl)morpholin-3-yl)methyl)benzamide] | 5 | 95
8 | Cc1nnsc1C(=O)N1CCOC[C@@H]1CNC(=O)c1ccc(-c2noc(C(F)(F)F)n2)cc1 [Example 68, N-(((3S)-4-((4-methyl-1,2,3-thiadiazol-5-yl)carbonyl)morpholin-3-yl)methyl)-4-(5-(trifluoromethyl)-1,2,4-oxadiazol-3-yl)benzamide] | 32 | 101
9 | Cc1ncsc1C(=O)N1CCOC[C@@H]1CNC(=O)c1ccc(-c2noc(C(F)(F)F)n2)cc1 [Example 69, N-(((3S)-4-((4-methyl-1,3-thiazol-5-yl)carbonyl)morpholin-3-yl)methyl)-4-(5-(trifluoromethyl)-1,2,4-oxadiazol-3-yl)benzamide] | 16 | 100
10 | O=C(NC[C@H]1COCCN1C(=O)c1csnn1)c1ccc(-c2noc(C(F)(F)F)n2)cc1 [Example 70, N-(((3S)-4-(1,2,3-thiadiazol-4-ylcarbonyl)morpholin-3-yl)methyl)-4-(5-(trifluoromethyl)-1,2,4-oxadiazol-3-yl)benzamide] | 5 | 95
11 | Cc1ccsc1C(=O)N1CCOC[C@@H]1CNC(=O)c1ccc(-c2noc(C(F)(F)F)n2)cc1 [Example 74, N-(((3S)-4-((3-methyl-2-thienyl)carbonyl)morpholin-3-yl)methyl)-4-(5-(trifluoromethyl)-1,2,4-oxadiazol-3-yl)benzamide] | 18 | 100
12 | O=C(NC[C@H]1COCCN1C(=O)C1CCCC1)c1ccc(-c2noc(C(F)(F)F)n2)cc1 [Example 77, N-(((3S)-4-(cyclopentylcarbonyl)morpholin-3-yl)methyl)-4-(5-(trifluoromethyl)-1,2,4-oxadiazol-3-yl)benzamide] | 18 | 98
13 | O=C(NC[C@H]1COCCN1C(=O)C1CCCCC1)c1ccc(-c2noc(C(F)(F)F)n2)cc1 [Example 80, N-(((3S)-4-(cyclohexylcarbonyl)morpholin-3-yl)methyl)-4-(5-(trifluoromethyl)-1,2,4-oxadiazol-3-yl)benzamide] | 15 | 98
14 | Cn1nc2ccccc2c1C(=O)N1CCOC[C@@H]1CNC(=O)c1ccc(-c2noc(C(F)(F)F)n2)cc1 [Example 82, N-(((3S)-4-((2-methyl-2H-indazol-3-yl)carbonyl)morpholin-3-yl)methyl)-4-(5-(trifluoromethyl)-1,2,4-oxadiazol-3-yl)benzamide] | 60 | 101
15 | O=C(NC[C@H]1COCCN1C(=O)Cn1cnccc1=O)c1ccc(-c2noc(C(F)(F)F)n2)cc1 [Example 83, N-(((3S)-4-((6-oxopyrimidin-1(6H)-yl)acetyl)morpholin-3-yl)methyl)-4-(5-(trifluoromethyl)-1,2,4-oxadiazol-3-yl)benzamide] | 4 | 15
16 | CC(C)n1nccc1C(=O)N1CCOC[C@@H]1CNC(=O)c1ccc(-c2noc(C(F)(F)F)n2)cc1 [Example 84, N-(((3S)-4-((1-isopropyl-1H-pyrazol-5-yl)carbonyl)morpholin-3-yl)methyl)-4-(5-(trifluoromethyl)-1,2,4-oxadiazol-3-yl)benzamide] | 53 | 98
17 | Cn1cc2c(C(=O)N3CCOC[C@@H]3CNC(=O)c3ccc(-c4noc(C(F)(F)F)n4)cc3)cccc2n1 [Example 85, N-(((3S)-4-((2-methyl-2H-indazol-4-yl)carbonyl)morpholin-3-yl)methyl)-4-(5-(trifluoromethyl)-1,2,4-oxadiazol-3-yl)benzamide] | 15 | 96
18 | N#Cc1cc(Cl)cc(C(=O)N2CCOC[C@@H]2CNC(=O)c2ccc(-c3noc(C(F)(F)F)n3)cc2)c1 [Example 86, N-(((3S)-4-(3-chloro-5-cyanobenzoyl)morpholin-3-yl)methyl)-4-(5-(trifluoromethyl)-1,2,4-oxadiazol-3-yl)benzamide] | 24 | 98
19 | Cc1cc(C#N)ccc1C(=O)N1CCOC[C@@H]1CNC(=O)c1ccc(-c2noc(C(F)(F)F)n2)cc1 [Example 87, N-(((3S)-4-(4-cyano-2-methylbenzoyl)morpholin-3-yl)methyl)-4-(5-(trifluoromethyl)-1,2,4-oxadiazol-3-yl)benzamide] | 29 | 98
20 | Cc1noc(C)c1C(=O)N1CCOC[C@@H]1CNC(=O)c1ccc(-c2noc(C(F)(F)F)n2)cc1 [Example 88, N-(((3S)-4-((3,5-dimethyl-1,2-oxazol-4-yl)carbonyl)morpholin-3-yl)methyl)-4-(5-(trifluoromethyl)-1,2,4-oxadiazol-3-yl)benzamide] | 38 | 100
21 | O=C(NC[C@H]1COCCN1C(=O)N1CCCCC1)c1ccc(-c2noc(C(F)(F)F)n2)cc1 [Example 89, N-(((3S)-4-(piperidin-1-ylcarbonyl)morpholin-3-yl)methyl)-4-(5-(trifluoromethyl)-1,2,4-oxadiazol-3-yl)benzamide] | 12 | 98
22 | Cn1nc2ccccc2c1C(=O)N1CCOC[C@@H]1CC(=O)Nc1ccc(-c2noc(C(F)(F)F)n2)cc1 [Example 90, 2-((3S)-4-((2-methyl-2H-indazol-3-yl)carbonyl)morpholin-3-yl)-N-(4-(5-(trifluoromethyl)-1,2,4-oxadiazol-3-yl)phenyl)acetamide] | 29 | 97
